Source: article PMC3441040 (ACS Medicinal Chemistry Letters, 2012)

Legend:
purified murine COX-2 = target: T1, purified murine COX-2 (Mus musculus, UniProt Q05769); test: Inhibition of mCOX-2 dependent oxygenation of 2-AG and AA in vitro; format: biochemical; conditions: read-out: 2-AG IC50 (dash)
T1 sequence (Q05769 18-604): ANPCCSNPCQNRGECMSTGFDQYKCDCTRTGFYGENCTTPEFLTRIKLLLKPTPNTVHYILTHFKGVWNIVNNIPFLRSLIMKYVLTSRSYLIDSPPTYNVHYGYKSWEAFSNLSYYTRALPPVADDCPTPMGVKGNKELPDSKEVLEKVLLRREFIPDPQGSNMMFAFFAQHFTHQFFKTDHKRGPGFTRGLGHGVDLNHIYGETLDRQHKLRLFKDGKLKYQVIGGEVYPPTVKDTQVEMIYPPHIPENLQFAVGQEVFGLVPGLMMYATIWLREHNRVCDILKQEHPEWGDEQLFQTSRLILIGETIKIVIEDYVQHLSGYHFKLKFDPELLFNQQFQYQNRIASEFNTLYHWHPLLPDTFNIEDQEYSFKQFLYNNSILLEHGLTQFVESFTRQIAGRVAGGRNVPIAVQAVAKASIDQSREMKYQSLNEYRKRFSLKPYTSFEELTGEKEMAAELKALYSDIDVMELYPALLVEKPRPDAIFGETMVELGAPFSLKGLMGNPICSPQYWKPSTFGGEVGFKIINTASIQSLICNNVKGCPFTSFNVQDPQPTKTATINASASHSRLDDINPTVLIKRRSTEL

[1] = test system: COX-2 dependent oxygenation in RAW 264.7 macrophages; test: Oxygenation of 2-AG and AA in LPS/interferon γ stimulated RAW 264.7 macrophages; format: cell-based; conditions: Mus musculus, RAW264.7, read-out: AA inhibition in RAW 264.7 cells

| inhibition at 10 µM (purified murine COX-2) [%] | Compound | inhibition at 50 µM [1] [%] |
| --- | --- | --- |
| < 50 | COc1ccc2cc(C(C)(C)C(=O)O)ccc2c1 [4b] |  |
| < 50 | CC(C)Cc1ccc(C(C)(C)C(=O)O)cc1 [4c] |  |
| < 50 | CC(C)Cc1ccc(C2(C(=O)O)CC2)cc1 [5c] |  |
|  | C[C@@H](C(=O)O)c1ccc(-c2ccccc2)c(F)c1 [7a, (R)-flurbiprofen] | 0 |
